# Data published in patent publication US20130344065A1, “Combination Treatment with VEGF-C Antagonists” (Vegenics Pty Ltd, priority 2010, published 2013).
# Values joined by “and” are separate entries in the source; they are usually repeats but may differ in a detail not shown here. Equal values may be shown once. “Also recorded” adds a separate entry of the source.
# How the values were obtained:
# [1] = system: PC-3 human prostate tumors (xenograft); assay: Subcutaneous PC-3 xenograft, single therapy (Example 2); assay type: in vivo, nude mice
# Method: Cells were implanted into 80 mice. […] The treatment with drugs began on the day after randomization. […] At the end of the experiment, statistical analysis was performed on the tumor growth rate of each treatment group versus that of the control.
# [2] = system: VEGF-C stimulated HUVEC proliferation; assay: HUVEC proliferation assay; assay type: cell-based; settings: 48 hrs, WST-1
# Method: HUVEC proliferation assays were conducted for 48 hrs and cell number measured with WST-1 reagent (Roche).
# [3] = system: PC-3 human prostate carcinoma xenografts; assay: PC-3 xenograft combination therapy (Example 3, first study);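 also: subcutaneous PC-3 tumors in male athymic NCr nude mice aged 6-7 weeks, combination agents dosed within 30 min of each other, animals euthanized once tumors exceeded 2 g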
# Method: Docetaxel was administered intravenously at 10 mg/kg weekly for three injections.
# HIgG1 Isotype control-humanised antibody (6.4-12.36 mg/ml) and VGX-100 (5.53 and 5.75 mg/ml) were provided as frozen colorless stock solutions in Dulbecco's phosphate buffered saline (DPBS) and stored from light at −80° C. The stock solutions were thawed and stored at 4° C. when treatment began. The dosing solutions (40 mg/kg in 0.2 ml/20 g body weight) were prepared by diluting the stock solution with DPBS. The resulting formulations were clear with pH values ranging from 7.02-7.21. The dosing vials were kept on wet ice during dosing, gently pipetted and not aspirated through a needle except during administration. Dosing solutions were prepared weekly in DPBS and stored protected from light at 4° C. while not in use.
# Docetaxel (lot no. D9A095) was manufactured by Sanofi-Aventis and obtained from McKesson as a pale yellow solution in 50% EtOH/50% Tween80. It was stored protected from light at 4° C. Docetaxel was diluted as directed on the package insert with the provided diluent (sterile water) to produce a clear and colorless 10 mg/ml stock solution. On each treatment day, a fresh 10 mg/ml stock was prepared and further diluted with water to achieve the appropriate concentration. The resulting solution was clear and colorless with a pH of 7.16.
# All test articles were administered within two hours of preparation. For groups receiving combination therapy, the drugs were administered in the order presented in Table 1 and within 30 minutes of one another.
# Male NCR(NCRNU-M) athymic mice were obtained from Taconic. They were 6-7 weeks old on Day 1 of the experiment. The mice were fed irradiated Rodent Diet 5053 (LabDiet™) and water ad libitum. The mice were housed in static cages with Bed-O'Cobs™ bedding inside Biobubble® Clean Rooms that provide H.E.P.A filtered air into the bubble environment at 100 complete air changes per hour. All treatments, body weight determinations, and tumor measurements were carried out in the bubble environment. The environment was controlled to a temperature range of 21.1±1.1° C. (70±2° F.) and a humidity range of 30-70%.
# Test mice were implanted subcutaneously on Day 0. […] Mice with tumors in excess of 2 g or with ulcerated tumors were euthanized, as were those found in obvious distress or in a moribund condition.
# PC-3 cells were obtained from ATCC and expanded using Ham's F-12 media supplemented with 10% fetal bovine serum and 1% penicillin-streptomycin-glutamine in 5% CO2 atmosphere at 37° C. When expansion was complete, the cells were collected using Trypsin (Cell Gro®), the trypsin neutralized, and the cells pooled for implantation. The PC-3 (Passage 10) cell suspension was counted using trypan blue exclusion with a hemacytometer. The cell suspension was reduced to a pellet using an Eppendorf 5810R centrifuge at 1500 rpm (300×g) for 5 minutes at 4° C. A 2.5×10^7 cells/ml suspension was prepared in 50% serum free media and 50% Matrigel®. Pre-injection viability was 97.7%. Test animals were implanted subcutaneously on Day 0 with 5×10^6 cells/animal (0.2 ml) using a 27-gauge needle and syringe. The cell suspension was maintained on wet ice to minimize the loss of viability and inverted frequently to maintain a uniform cell suspension during the inoculation procedure.
# Treatments began on Day 8, when the mean estimated tumor mass for all groups in the experiment was 129 mg (range of group means, 123-134 mg). All animals weighed≧19.2 g at the initiation of therapy. Mean group body weights at first treatment were matched (range of group means, 21.5-22.8 g). All animals were dosed according to individual body weight on the day of treatment (0.2 ml/20 g).
# [4] = target: T1, VEGF-C binding to the extracellular domain of VEGFR-2 (Homo sapiens, UniProt P49767); assay: Ba/F3-VEGFR-2 bioassay of VEGF-C binding; assay type: cell-based; settings: [3H]thymidine incorporation, 48 hrs
# T1 construct: expressed in transfected cells; host or cells: Ba/F3 cells (BA/F3-VEGFR-2)
# T1 sequence (P49767 112-227 limits assumed): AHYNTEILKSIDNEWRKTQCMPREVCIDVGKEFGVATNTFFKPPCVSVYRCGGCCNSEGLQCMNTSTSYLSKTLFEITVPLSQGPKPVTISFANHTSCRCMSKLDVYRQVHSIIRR
# Method: (§1) The binding of VEGF-C to the extracellular domain of VEGFR-2 or VEGFR-3 was measured using BA/F3-VEGFR-2 or -3/EpoR cells. The response to ligands and VGX-100 was measured by [^3H]-thymidine incorporation following exposure for 48 hrs.
# (§2) Bioassays to measure the binding of VEGF-C to the extracellular domain of VEGFR-2 or VEGFR-3 were performed with BA/F3-VEGFR-2 or BA/F3-VEGFR-3/EpoR cells. The response to ligands and VGX-100 was measured by [^3H] thymidine incorporation following exposure for 48 hrs.
# [5] = target: T2, VEGF-C binding to the extracellular domain of VEGFR-3 (Homo sapiens, UniProt P49767); assay: Ba/F3-VEGFR-3/EpoR bioassay of VEGF-C binding; assay type: cell-based; settings: [3H]thymidine incorporation, 48 hrs
# T2 construct: expressed in transfected cells; host or cells: Ba/F3 cells (BA/F3-VEGFR-3/EpoR)
# T2 sequence (P49767 112-227 limits assumed): T1 sequence (P49767 112-227 limits assumed)
# Method: as §1, §2
# [6] = system: U87MG human glioblastoma tumors; assay: U87MG glioblastoma xenograft, combination (Example 7); assay type: in vivo, nude mice; settings: VGX-100 40 mg/kg, bevacizumab 10 mg/kg, administered alone
# Method: This experiment was conducted broadly in accordance with Example 3, except that U87MG glioblastoma cells were substituted for PC-3 prostate cancer cells. Cells from a human glioblastoma tumor line (U87MG) were implanted subcutaneously into mice and grown until the tumors reached an average size of approximately 150 mg. […] There were 10 animals per treatment group.
# [7] = system: PC-3-GFP human prostate tumors; assay: PC-3-GFP orthotopic MetaMouse model (Example 13); assay type: in vivo
# Method: PC-3-GFP human prostate cancer orthotopic MetaMouse® model was conducted by AntiCancer Inc. PC-3-GFP tumor fragments were surgically implanted between the ventral lobes of the prostate and closed by suture. Treatment was started three days after surgery (60 mg/kg, 3×/week, IP). Whole body imaging of GFP-expressing tumors was performed once a week in live animals after GFP-visible tumors were established. Primary tumor sizes were estimated once a week by caliper measurement and tumor volume (mm^3) calculated by the formula (L×W2)/2. Details of the study are as follows:
# Male NCr nu/nu mice, 5-6 weeks old, were used in the study. Original breeding pairs were purchased from Taconic, Germantown, N.Y. Test animals were bred and maintained in a HEPA filtered environment for the experiment. Cages, food and bedding were autoclaved. The animal diets were obtained from PMI Nutrition International Inc. (Brentwood, Mo.).
# Vehicle, VGX-100 and Isotype were kept at −20° C. until use. VGX-100 and Isotype were diluted with PBS to proper concentration (7.5 mg/ml and 7.5 mg/ml) before use.
# Tumor stocks were made by subcutaneously injecting PC-3-GFP cells at a concentration of 5×10^6 cells/100 μl into the flank of nude mice. The tumor tissues harvested from s.c. growth in nude mice were inspected and any grossly necrotic or suspected necrotic or non-GFP tumor tissues were removed. Tumor tissues were subsequently cut into small fragments of approximately 1 mm^3.
# The animals were anesthetized with the mixture of Ketaset, Xylazine and PromAce and the surgical area was sterilized using iodine and alcohol. An incision approximately 2 cm long was made in the lower abdomen of the nude mouse using a sterile scalpel and blade (#10). The prostate was exposed and the capsule of the prostate was carefully opened. Two fragments (1 mm^3 each) of PC-3-GFP tissue were sutured between two ventral lobes of the prostate with sterile 8-0 surgical suture (nylon). The abdomen was closed in one layer with sterile 6-0 surgical sutures (silk). All procedures were carried out under a 5× dissecting microscope under HEPA filtered laminar flow hoods.
# Treatment in both groups was started three days after SOI.
# The FluorVivo imaging system (INDEC Biosystems, Santa Clura, Calif.) was used for whole body imaging. Whole body optical imaging of GFP-expressing tumors was performed once a week in live animals after GFP-visible tumors were established. At necropsy, open imaging was performed in the thoracic and abdomen for inspection of metastasis to the lymph nodes.
# Tumor size and body weight measurement: Primary tumor sizes and body weights were measured once a week by using a calipers and an electronic scale, respectively. Primary tumor sizes were estimated once a week by measuring the perpendicular minor dimension (W) and major dimension (L). Approximate tumor volume (mm^3) was calculated by the formula (W2×L)×1/2.
# All the animals were sacrificed at day 30 after treatment initiation.
# Primary tumor was excised and weighed at necropsy.
# The Student's t-test with α equal to 0.05 was used to compare the mean tumor volume and tumor weight among the experimental groups.
# [8] = system: U87MG glioblastoma tumors (xenograft); assay: U87MG glioblastoma xenograft, single agent (Example 6)
# Method: Antibodies were administered twice per week by intraperitoneal injection.
# To initiate the study, 5×10^6 of U-87 cells suspended in 100 μl of a mixture of medium/Matrigel (1:1) were subcutaneously implanted to the nude mice in the right flank region. Cancer cells were planted into 80 mice. Animals were monitored for tumor growth daily after cell implantation. When tumor volumes reached 80-100 mm^3, mice were randomized into 5 groups of 10 mice each using only mice having tumor volumes closest to the mean value. Mice with tumor volumes too big or too small were excluded from the study. Tumor volumes were measured using the formula V=L×W×H×π/6, where L and W represented the longer and shorter diameters of the tumor and H represented the height of the tumor. The treatment with drugs was initiated on the day after randomization. […] The treatment was carried out twice weekly for 27 days. Throughout the entire study, tumor volumes were measured twice weekly and body weights once weekly. […] Unscheduled sacrifices were performed if tumor volumes reached>1,500 mm^3, animals lost>25% of their original body weights, tumor ulceration appeared, or mice became moribund.
# [9] = VGX-100 10 and 20 mg/kg IP twice weekly
substance,measurement,setting,value
"VGX-100: VEGF-C antibody; heavy chain SEQ ID NO: 3, light chain SEQ ID NO: 4",Tumor volume response,"[1]; VGX-100 40 mg/kg IP twice weekly, 40 mg/kg",significant single-agent activity; also recorded: efficacy equivalent to bevacizumab at 10 mg/kg
same,Tumor volume response,[1]; [9],improved over the negative control
same,Inhibition of VEGF-C stimulated HUVEC proliferation,[2],inhibited VEGF-C stimulated HUVEC proliferation
same,Time to evaluation size,"[3]; 750 mg, individual animals",39.5 days and 22.8 days and 19.9 days and 22.3 days and 33.5 days and 18.5 days and 31.1 days and 19.4 days and 22.0 days and 22.2 days
same,Tumor Growth Delay,"[3]; T-C, evaluation size 750 mg, same doses",2.2 days
same,% T/C Day 22,"[3]; VGX-100 40 mg/kg IP, bevacizumab 10 mg/kg IP, docetaxel 10 mg/kg IV, median tumor mass vs control",87%
same,% T/C: tumor burden in treatment group compared to control,[3]; at day 160,97.9%
same,% TFS (tumor free survivors),"[3]; at termination, Day 160, same doses",0%
same,Td,[3]; group mean,8.3 days
same,Time to evaluation size,[3]; group mean,25.1 days
same,Time to fold growth EP,[3]; group mean,20.4 days
same,Td,[3]; group median,6.2 days
same,Time to evaluation size,[3]; group median,22.2 days
same,Time to fold growth EP,[3]; group median,20.8 days
same,Time to fold growth EP,[3]; individual animals,27.4 days and 20.9 days and 16.4 days and 21.5 days and 28.2 days and 13.9 days and 21.3 days and 15.8 days and 17.9 days and 20.7 days
same,Complete regression,"[3]; individual animals, yes/no",no
same,Partial regression,"[3]; individual animals, yes/no",no
same,Tumor free survivor,"[3]; individual animals, yes/no",no
same,Total CR,[3]; number of animals of 10,0
same,Total PR,[3]; number of animals of 10,0
same,Total TFS,[3]; number of animals of 10,0
same,% CR (complete regression),[3]; same doses,0%
same,% PR (partial regression),[3]; same doses,0%
same,Anticancer activity of regimen,[3]; same doses,ineffective
same,Apparent Net Tumor Cell Kill (logs),[3]; same doses,−2.85 logs
same,Tumor regressions,[3]; same doses,Nor tumor regressions were observed
same,Td,"[3]; tumor doubling time, individual animals",16.6 days and 5.1 days and 6.0 days and 6.1 days and 14.1 days and 5.7 days and 12.3 days and 6.3 days and 7.1 days and 3.8 days
same,Blocking of VEGF-C binding to VEGFR-2,[4],blocked VEGF-C binding
same,Blocking of VEGF-C binding to VEGFR-3,[5],blocked VEGF-C binding
same,Effect on tumor growth,[6],no significant effect
same,Reduction of incidence of metastasis to local lymph nodes vs control,[7]; 60 mg/kg IP,55%
same,Toxicity / body weight,[7]; 60 mg/kg IP 3x/week,no obvious toxicity; also recorded: No acute body weight loss
same,Metastatic incidence to lymph nodes vs control,"[7]; FOTI, Fisher's exact test",significant difference in metastatic incidence
same,# of animals with lymph node (LN) mets,"[7]; FOTI, of 19 analyzed animals, 60 mg/kg IP",6
same,"Animals with lymph node (LN) mets, percent","[7]; FOTI, 60 mg/kg IP",32%
same,Tumor volume vs isotype control,[7]; day 28,statistically significant reduction
same,Reduction of mean tumor volume vs isotype control,"[7]; day 28, 60 mg/kg IP",59%
same,Mean tumor volume (mm^3) mean ± SE,"[7]; day 28 after treatment, caliper, 60 mg/kg IP 3x/week",176.8 ± 183.2 mm^3
same,Tumor weight vs isotype control,[7]; day 30,A statistically significant reduction was not observed
same,Mean tumor weight (g) mean ± SE,"[7]; day 30 after treatment, 60 mg/kg IP",0.95 ± 0.45 g
same,Tumor growth vs vehicle control,[8]; VGX-100 40 mg/kg IP twice weekly,significantly inhibited tumor growth
same,Tumor volume response,[8]; [9],improved over the negative control
